Assay results: patent US20180339016A1 (priority 2015, published 2018)
Like-named read-outs stand apart in the source and are kept apart here.

System: E. coli ATCC 25922
Assay: Antibiotic interaction assay (Wimley), 2/3 broth microdilution: MIC alone, MIC of combination, FICI
Type: cell-based
Conditions: for MIC of combination (μM): antibiotic: concentration of labelled drug in combination with KL-L9P; for FICI of drug with KL-L9P / FICIKL-L9P / FICIantibiotic: labelled drug + KL-L9P; for FICI of drug with colistin: labelled drug + colistin; for MIC of drug with 1 μM KL-L9P / dilution of MIC relative to drug alone: with 1 μM of KL-L9P
Description: Synergy was evaluated by an antibiotic interaction assay (Wimley, 2015) Using the method of Wimley (BBA, 2015, v. 1848(1), pp. 8-15), synergy between the membrane-activating peptide and an antibiotic was measured by an FICI value (FIG. 17). […] Thus, to accurately examine synergy, a ⅔ dilution method which observes MIC at denser concentration intervals is advantageous over a ½ dilution method in statistical terms. […] In the same manner, the MIC of an antibiotic or repositioning drug (second line) is measured. In the third line, the two compounds are mixed after putting half amount each, and the MIC thereof is measured.
A broth microdilution technique (⅔ dilution) was used together with an MH broth. E. coli treated with an antibiotic and the peptide was incubated in a 37° C. incubator for 18 hours.
To measure the synergy between the membrane-activating peptides and the repositioning drug, a 10× compound was prepared, and then serially diluted ⅔-fold with distilled water. An MH broth (900 μl) was added to and mixed with the 10× compound (100 μl), and then 200 μL of the mixture was taken and added to a 96-well plate. E. coli cultured for one day was adjusted to 0.5 MCF using MCFarland, and diluted 10-fold, and then 10 μl of the dilution was added to each well of the plate (5×10^5 CFU/mL). After addition of the bacterial cells, plate was incubated at 37° C. for 18 hours, and then the OD value at UV-Vis (600 nm) was measured. Cell viability (%)=(OD600 of sample−OD600 of negative control)/(OD600 of positive control−OD600 of negative control)×100.

[1] = Escherichia coli, ATCC25922, 18 h, drug alone, <20% growth of positive control, read-out: MIC of antibiotic
[2] = Escherichia coli, ATCC25922, 18 h, Tables 19-23, read-out: MIC (μM) against E. coli ATCC, 1 compound alone

Structure (SMILES)	MIC [1] [µM]	MIC of combination (μM): antibiotic [µM]	FICI of drug with KL-L9P	FICIKL-L9P	FICIantibiotic	synergy with KL-L9P	other results
CC(C)Cc1ccc([C@@H](C)C(=O)O)cc1 [(R)-ibuprofen]	12000	555.56	0.27	0.23	0.05	–	–
CC(C)Cc1ccc([C@H](C)C(=O)O)cc1 [(S)-ibuprofen]	12000	416.67	0.23	0.20	0.03	–	MIC [2]: 12000 µM; MIC (μM) against E. coli ATCC, combination of two compounds (KL-L9P + (S)-ibuprofen, concentration of labelled component): 420 µM; MIC (μM) against E. coli ATCC, combination of 3 compounds (KL-L9P + colistin + (S)-ibuprofen, concentration of labelled component): 98 µM; MIC (μM) against E. coli ATCC, combination of two compounds (colistin + (S)-ibuprofen, concentration of labelled component): 830 µM
N[C@@H]1CONC1=O [D-cycloserine]	–	–	–	–	–	not synergistic	–
CC(=O)Nc1ccc(O)cc1 [acetaminophen]	–	–	–	–	–	not synergistic	–
CC(=O)Oc1ccccc1C(=O)O [aspirin]	519	479.17	1.59	0.66	0.92	not synergistic	–
CC(C)c1c(C(=O)Nc2ccccc2)c(-c2ccccc2)c(-c2ccc(F)cc2)n1CC[C@@H](O)C[C@@H](O)CC(=O)O [atorvastatin]	> 500	166.67	0.60	0.38	0.22	–	–
COc1ccc2cc3[n+](cc2c1OC)CCc1cc2c(cc1-3)OCO2 [berberine]	298	273.15	–	0.53	0.92	not synergistic	–
O=C(O)c1cn(C2CC2)c2cc(N3CCNCC3)c(F)cc2c1=O [ciprofloxacin]	–	–	–	–	–	not synergistic	–
Cc1onc(-c2ccccc2Cl)c1C(=O)N[C@@H]1C(=O)N2[C@@H]1SC(C)(C)[C@@H]2C(=O)O [cloxacillin]	74.1	17.78	–	0.25	0.24	–	MIC [2]: 70 µM; MIC (μM) against E. coli ATCC, combination of two compounds (KL-L9P + cloxacillin, concentration of labelled component): 18 µM; MIC (μM) against E. coli ATCC, combination of 3 compounds (KL-L9P + colistin + cloxacillin, concentration of labelled component): 9.4 µM; MIC (μM) against E. coli ATCC, combination of two compounds (colistin + cloxacillin, concentration of labelled component): 38 µM; FICI of drug with colistin: about 1; MIC of drug with 1 μM KL-L9P: 0.3 µM; dilution of MIC relative to drug alone: 128 fold
COc1cc(/C=C/C(=O)CC(=O)/C=C/c2ccc(O)c(OC)c2)ccc1O [curcumin]	396	78.70	0.30	0.10	0.20	–	MIC [2]: 300 µM; MIC (μM) against E. coli ATCC, combination of 3 compounds (KL-L9P + colistin + curcumin, concentration of labelled component): 20 µM; MIC (μM) against E. coli ATCC, combination of two compounds (KL-L9P + curcumin, concentration of labelled component): 79 µM; MIC (μM) against E. coli ATCC, combination of two compounds (colistin + curcumin, concentration of labelled component): 83 µM; MIC of drug with 1 μM KL-L9P: 4 µM; dilution of MIC relative to drug alone: about 330 fold
CC(C)Cc1ccc(C(C)C(=O)O)cc1 (centres unmarked) [ibuprofen]	–	–	–	–	–	–	MIC of drug with 1 μM KL-L9P: 3 µM; dilution of MIC relative to drug alone: about 3000 fold
CC(=O)NC[C@H]1CN(c2ccc(N3CCOCC3)c(F)c2)C(=O)O1 [linezolid]	71.1	15.80	–	0.18	0.22	–	lowering of MIC in combination KL-L9P/colistin/linezolid versus alone: 10 fold; MIC [2]: 70 µM; MIC (Escherichia coli, ATCC25922, Example 7, read-out: MIC when the three compounds were used alone): 60 µM; MIC (Escherichia coli, ATCC25922, linezolid alone, read-out: MIC of Linezolid): 83 µM; MIC (μM) against E. coli ATCC, combination of 3 compounds (KL-L9P + colistin + linezolid, concentration of labelled component): 6.7 µM; MIC (μM) against E. coli ATCC, combination of two compounds (KL-L9P + linezolid, concentration of labelled component): 16 µM; MIC (μM) against E. coli ATCC, combination of two compounds (colistin + linezolid, concentration of labelled component): 36 µM; concentration killing E. coli in combination KL-L9P/colistin/linezolid (concentration of labelled component): 6 µM; FICI of drug with colistin: about 1; MIC (linezolid alone, read-out: MIC of Linezolid): 59 µM; MIC of drug with 1 μM KL-L9P: 10 µM; dilution of MIC relative to drug alone: about 16 fold
CC[C@H](C)C(=O)O[C@H]1C[C@@H](C)C=C2C=C[C@H](C)[C@H](CC[C@@H]3C[C@@H](O)CC(=O)O3)[C@H]21 [lovastatin]	> 500	74.07	0.24	0.14	0.10	–	–
O=c1c(O)c(-c2ccc(O)c(O)c2)oc2cc(O)cc(O)c12 [quercetin]	7500	108.39	0.35	0.33	0.01	–	–
